This is an account of results in paper PMC10299677, “Fluorinated Benzofuran and Dihydrobenzofuran as Anti-Inflammatory and Potential Anticancer Agents” (International Journal of Molecular Sciences, 2023).

“Also recorded” adds a separate entry of the source.

One assay deals with COX-2 protein expression. As to the kind of experiment: COX-2 protein expression in LPS-treated macrophages (Western blot). The assay is classed as cell-based, C57BL/6J mice. Particulars: 10 µM for compounds 1, 7, 9, 50 µM for others, LPS 24 h. As to the method: Figure 4 Effects of the fluorinated benzofuran and dihydrobenzofuran on COX-2 and NOS2 protein expressions. COX-2 and NOS2 protein expressions were assessed in macrophages incubated with only 10 µM for compounds 1, 7, and 9, and 50 µM for the other compounds, for 30 min prior to the addition of 10 ng/mL LPS for 24 h. β-actin was used as a loading control, and densitometric analysis was performed using ImageJ software (NIH, MA). Data are expressed as fold of LPS-treated macrophages and represented as mean ± SEM of 4 different experiments; * p < 0.05 versus LPS (one-way ANOVA followed by Dunnett’s test).
Macrophages were incubated with the compounds for 30 min prior to the addition of 10 ng/mL LPS for 24 h. Protein levels for COX-2 and NOS2 were detected in LPS-stimulated macrophages. As previously described, 10 µg of total protein was assessed. The primary antibodies were developed and characterized as previously described: for COX-2, mouse monoclonal antibody anti-COX-2 (clone COX-214, 1/5000); for NOS2, rabbit polyclonal antibody anti-NOS2 (dilution1/2000 [33]). Antibodies anti-phospho-NF-κB (3033S), phospho-IκBα (9246S), and total IκBα (4814S) were from Cell Signaling Technologies (Danvers, MA, USA). Total NF-κB C-20 (sc-372) was from Santa Cruz Biotechnologies (Dallas, TX, USA), and mouse β-actin (dilution 1/10,000) (Sigma-Aldrich, A5441). Clarity™ western ECL substrate (Bio-Rad Laboratories 10-5061) was used according to the manufacturer’s instructions to reveal positive bands visualized using Bio-Rad ChemiDoc. For Bcl-2 and cleaved PARP-1, HCT116 cells were plated in 6-well plates (200,000 cells per well) for 24 h, and treated with compounds 1 and 2 at 10, 25, and 50 µM for 72 h. Supernatants and cells were collected and lysed using RIPA lysis buffer containing inhibitors of protease. Western blot of Bcl-2 and cleaved PARP-1 was performed using 25 µg of total protein with a rabbit polyclonal antibody anti-Bcl-2 (1/500) (Santa Cruz Biotechnology, sc-492), rabbit polyclonal antibody anti-PARP-1 (1/1000) (Santa Cruz Biotechnology, sc-7150), and mouse anti-β-actin (dilution 1/10,000) (Sigma-Aldrich, A5441).
Densitometric analyses were performed using ImageJ software (NIH, MA, USA). The ratio of the different analyzed bands to β-actin was determined and data are represented as fold change compared to the LPS-treated cells. Percentage of viable cells for proliferation assay was determined as percentage to control (non-treated cells). For TUNEL assay, apoptotic cells were quantified, and results were expressed as percentage to positive cells (cleaved DNA) compared to control (non-treated cells). Statistical analysis was performed using one-way ANOVA, followed by Dunnett’s multiple comparisons test using GraphPad Prism software. Differences were considered significant when p < 0.05.
In general terms: Immunoblotting shows a protein as a band on a membrane.

The subject of a further assay is PGE2. In words: PGE2 release in LPS-treated macrophages (BMDM). Particulars: for blocking of PGE2 formation in response to LPS: 50 µM; for blocking of PGE2 formation in response to LPS / effect on PGE2 production in response to LPS: 10 ng/mL LPS 24 h; for IC50: compounds 30 min prior to 10 ng/mL LPS for 24 h; for effect on PGE2 production in response to LPS: 10 µM for compounds 1, 7, 9, 50 µM for others. Format: cell-based, C57BL/6J mice. As to the method:
C57BL/6J (10–15 weeks old) male mice were obtained from the animal care facility at the American University of Beirut. All animal procedures were performed following the recommendations of the IACUC (Institutional Animal Care and Use Committee approval 16-09-M379). BMDMs were prepared and characterized as described previously by our group. BMDMs were isolated from C57BL/6J mice by flushing the femur and tibia with RPMI-1640 culture media (Sigma-Aldrich R7388), and cells were collected and centrifuged at 300× g for 5 min. The supernatant was discarded, and the pellet was resuspended in 2 mL red blood lysis 10% (Sigma-Aldrich R7767) medium in PBS and incubated for 5 min at room temperature. After diluting the suspension of cells with 5 mL of RPMI containing 10% FBS and 1% penicillin–streptomycin, cells were centrifuged at 300× g for 5 min, and the cell pellet was resuspended in RPMI media containing 10% FBS supplemented with 15% L929-conditioned medium containing macrophage-colony stimulating factor (M-CSF1) and plated on […]. Cells were allowed to proliferate and differentiate for 5–6 days. Cells were harvested, washed, and allowed to adhere overnight in RPMI containing 10% FBS for treatment. Cells were previously characterized by flow cytometry as macrophages using this method. […] Cells were plated at 0.8 × 10^6 cells per 3.8 cm^2 well [27].
BMDMs were then treated with different concentrations of the benzofuran and dihydrobenzofuran derivatives for 30 min prior to the addition of 10 ng/mL LPS for 24 h. […] The supernatants were assessed for IL-6, PGE2, CCL2, and nitrite, the stable derivative of NO, as described previously.
IL-6, CCL2, nitrite (for NO), and PGE2 concentrations from 3–5 independent experiments were expressed as percentage of LPS alone and as mean ± SEM. COX activity was determined as percentage of PGE2 produced from exogenous arachidonic acid. Curve fitting and calculation of IC50 values were performed using GraphPad Prism (version 9.5.1 Software, La Jolla, CA, USA).

Broadly, the IC50 is the concentration needed to halve the response being measured. A higher IC50 goes with a need for much substance.

With `COC(=O)/C=C1/Oc2ccc(Br)cc2C1(F)F` [Compound 1], the “effect on LPS-induced COX-2 protein expression” value with COX-2 protein expression is “loss of this inhibitory effect”.
For the compound `O=C(O)/C=C1/Oc2ccc(Br)cc2C1(F)F` [Compound 2], in the assay on COX-2 protein expression, the “effect on LPS-induced COX-2 protein expression” value is listed as “significantly decreased”. For the same compound, in the assay on PGE2, the “blocking of PGE2 formation in response to LPS” value was “more than 50%”. Also, the IC50 with PGE2 (Mus musculus, Macrophage) turned out to be 1.92 µM; in the assay with PGE2, 1.91 µM.
`O=C(O)/C=C1\Oc2ccc(Br)cc2C1(F)F` [Compound 3]: the “blocking of PGE2 formation in response to LPS” value with PGE2 is given as “more than 50%”. In the assay with PGE2 (Mus musculus, Macrophage), this compound yielded an IC50 of 1.48 µM.
Regarding `O=C(O)Cc1oc2ccc(-c3ccccc3)cc2c1F` [Compound 5], the “effect on LPS-induced COX-2 protein expression” value in the assay with COX-2 protein expression is “no effect”. Also, the “effect on PGE2 production in response to LPS” value (“effect on PGE2 production” below) in the assay with PGE2 is on record as “very potent inhibitors”. In the assay on PGE2 (Mus musculus, Macrophage), this compound registered a 50% inhibitory concentration (IC50) of 1.92 µM.
Take `C=C(C)c1ccc2oc(CC(=O)O)c(F)c2c1` [Compound 6]: the “effect on LPS-induced COX-2 protein expression” value with COX-2 protein expression is given as “no effect”. In addition, the “effect on PGE2 production” value in the assay with PGE2 is “very potent inhibitors”. Further, in the assay on PGE2 (Mus musculus, Macrophage), half-maximal inhibition (IC50) required 1.12 µM.
On to `COC(=O)CC1(O)Oc2ccc(Br)cc2C1(F)F` (stereo not drawn) [Compound 8], for which the “effect on PGE2 production” value in the assay on PGE2 is on record as “inhibited partial; also recorded: partial inhibition”. This compound had an IC50 in the assay on PGE2 (Mus musculus, Macrophage) of 20.5 µM.
